What is called CC50 is the concentration that lowers cell viability or growth by half. What is called EC50 is the midpoint of the concentration-response curve. As usually defined, the EC90 is the concentration at which the effect reaches the 90% level.

The nature of series [1]: Cellular toxicity assay, Vero cells. Conditions: African green monkey.
The nature of series [2]: Cellular toxicity assay, Huh7 cells. The format is cell-based. Conditions: human, read-out: Cytotoxicity CC50 Huh7.
The subject of the next series is SARS-CoV-2. Nature of the series: microbe, parasite or virus in culture. The format is cell-based.
Series [3] can be described thus: Cellular toxicity assay, PBM cells. Conditions: human.
Series [4] is described as follows: Cellular toxicity assay, CEM cells. Conditions: human.
Series [5] deals with Vero cells. The series is described as follows: Cellular toxicity assay, Vero cells. To be noted: read-out: Cytotoxicity CC50 Vero; Vero cells.
The test system of another series is HCoV-OC43. Nature of the series: microbe, parasite or virus in culture. It counts as cell-based. To be noted: Betacoronavirus 1, OC43.
Another series concerns CEM cells. The series is described as follows: Cellular toxicity assay, CEM cells. To be noted: read-out: Cytotoxicity CC50 CEM; CEM cells.
In series [6] the test system is Vero cells. The series is described as follows: Incubation of NHC in Vero cells, LC-MS/MS of deoxy-NHC derivatives. Conditions: 4 h at 37° C.
Series [7] deals with T1, ribonucleotide reductase (RNR) (Homo sapiens, UniProt P23921).
T1 sequence (P23921 1-792): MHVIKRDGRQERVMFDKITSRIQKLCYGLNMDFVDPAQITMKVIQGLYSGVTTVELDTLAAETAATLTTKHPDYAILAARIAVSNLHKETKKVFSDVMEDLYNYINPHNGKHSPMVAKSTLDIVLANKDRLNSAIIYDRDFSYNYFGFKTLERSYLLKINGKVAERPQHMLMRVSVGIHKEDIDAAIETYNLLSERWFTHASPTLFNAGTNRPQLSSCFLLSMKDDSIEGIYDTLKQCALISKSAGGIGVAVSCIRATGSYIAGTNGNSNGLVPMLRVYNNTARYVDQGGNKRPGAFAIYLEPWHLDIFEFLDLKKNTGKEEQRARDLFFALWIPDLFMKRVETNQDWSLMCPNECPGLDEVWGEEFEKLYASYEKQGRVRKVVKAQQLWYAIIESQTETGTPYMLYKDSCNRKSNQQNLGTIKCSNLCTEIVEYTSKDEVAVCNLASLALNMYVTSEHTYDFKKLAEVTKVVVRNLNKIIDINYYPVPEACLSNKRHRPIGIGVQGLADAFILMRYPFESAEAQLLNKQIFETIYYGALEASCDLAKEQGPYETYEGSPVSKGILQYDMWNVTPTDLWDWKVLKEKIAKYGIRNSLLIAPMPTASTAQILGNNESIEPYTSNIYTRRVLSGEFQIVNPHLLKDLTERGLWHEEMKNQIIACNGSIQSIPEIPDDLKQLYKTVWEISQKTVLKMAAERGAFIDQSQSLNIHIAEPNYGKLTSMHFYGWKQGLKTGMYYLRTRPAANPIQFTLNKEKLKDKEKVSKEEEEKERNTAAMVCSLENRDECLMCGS
T1 sequence (P31350 1-389 partner): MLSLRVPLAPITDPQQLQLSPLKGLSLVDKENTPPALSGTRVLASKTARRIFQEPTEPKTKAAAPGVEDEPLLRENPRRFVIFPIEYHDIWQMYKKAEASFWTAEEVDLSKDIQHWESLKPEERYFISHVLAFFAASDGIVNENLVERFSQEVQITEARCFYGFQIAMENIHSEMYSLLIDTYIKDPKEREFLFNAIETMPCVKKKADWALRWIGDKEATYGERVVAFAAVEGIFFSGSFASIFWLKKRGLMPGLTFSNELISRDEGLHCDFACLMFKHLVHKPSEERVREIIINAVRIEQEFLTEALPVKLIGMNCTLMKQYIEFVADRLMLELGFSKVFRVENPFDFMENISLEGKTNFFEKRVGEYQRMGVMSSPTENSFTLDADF

The mark [8] stands for this setting: Severe acute respiratory syndrome coronavirus 2, Calu-3, Calu3 cells, read-out: Anti-SARS-CoV-2 Activity (Calu3) EC50.
Where [9] appears, read: Severe acute respiratory syndrome coronavirus 2, Calu-3, Calu3 cells, read-out: Anti-SARS-CoV-2 Activity (Calu3) EC90.
The mark [10] stands for this setting: Severe acute respiratory syndrome coronavirus 2, Vero cells, read-out: Anti-SARS-CoV-2 Activity (Vero) EC50.
Where [11] appears, read: Severe acute respiratory syndrome coronavirus 2, Vero cells, read-out: Anti-SARS-CoV-2 Activity (Vero) EC90.

Like-named read-outs stand apart in the source and are kept apart here.

For the molecule `CC1(O)C(O)[C@H](n2ccc(NO)nc2=O)O[C@@H]1CO` (stereo partly shown), the CC50 is above 100000 nM in series [1], at least 100000 nM in series [2], above 100000 nM in [3] and above 100000 nM in [4]. Besides, the EC50 in the series with SARS-CoV-2 (setting [8]) is above 100000 nM; with SARS-CoV-2 (setting [10]), 600 nM. The EC90 in the series on SARS-CoV-2 (setting [9]) is above 100000 nM; with SARS-CoV-2 (setting [11]) it was 7400 nM.

Regarding `[2H]C1(O)C(O)[C@H](n2ccc(NO)nc2=O)O[C@@H]1CO` (stereo partly drawn) [D-NHC], the CC50 came to 41600 nM in [1], 27700 nM in [2] and 24100 nM in [3]. Moreover, the EC50 with SARS-CoV-2 (setting [8]) was 200 nM; with SARS-CoV-2 (setting [10]), 100 nM. Further, the values for the EC90 with SARS-CoV-2 (setting [9]) and in the series with SARS-CoV-2 (setting [11]) were 900 nM and 250 nM, respectively.

`O=c1nc(NO)ccn1[C@@H]1O[C@H](CO)[C@@H](O)[C@H]1O` [NHC, N^4-hydroxycytidine]: the CC50 with Vero cells [5] worked out at 16500 nM; with CEM cells, 2600 nM. In addition, the EC50 in the series with SARS-CoV-2 (setting [8]) was found to be 600 nM; in the series on SARS-CoV-2 (Severe acute respiratory syndrome coronavirus 2, read-out: Anti-SARS-Cov-2 EC50), 300 nM; in the series on SARS-CoV-2 (setting [10]) it was 200 nM; in the series with HCoV-OC43 (read-out: Anti-Hcov-OC43 EC50), 800 nM. In addition, the EC90 is 2000 nM with SARS-CoV-2 (setting [9]); 420 nM in the series with SARS-CoV-2 (setting [11]); 800 nM in the series on SARS-CoV-2 (Severe acute respiratory syndrome coronavirus 2, read-out: Anti-SARS-Cov-2 EC90); 1800 nM in the series on HCoV-OC43 (read-out: Anti-Hcov-OC43 EC90). Also, the “deoxy-NHC-TP detected in vero cells” value in the series on Vero cells [6] (10 μM NHC, cell pellet) is “not”; with Vero cells [6] (50 μM NHC, cell pellet) it was “trace amount”. For the same molecule, in the series with Vero cells [6] (cell pellet), the “level of deoxy-NHC, -MP and -DP in vero cells” value is recorded as “below limit of detection”. Moreover, the “deoxy-NHC or its derivatives in vero cell medium” value in the series with Vero cells [6] (supernatant) is “no deoxy-NHC or its derivatives was detected”.

For the molecule `O=c1nc(NO)ccn1[C@@H]1O[C@H](COP(=O)(O)OP(=O)(O)O)[C@@H](O)[C@H]1O` [NHC-DP], in series [7], the “ratio diphosphate : 2'-deoxy-diphosphate in the samples after RNR reaction” value is given as “around 100:0.1” and the “ratio triphosphate : 2'-deoxy-triphosphate in the samples after RNR reaction” value was ~100:0.009.

Values taken from patent publication US20240262857A1, “NOVEL UNIVERSAL ANTI-RNA VIRUS AGENTS” (priority 2021, published 2024).
